The values that follow come from EP0033503A2, “Medicaments with cytostatic activity and use of cyclic compounds, in which the heterocyclic N-ring atoms are substituted by several glycidyl groups, in pharmaceutical compositions” (Henkel Kommanditgesellschaft auf Aktien, priority 1980, dated 1981).

The experiment has as its system Tumorart P 388 (Leukämie). Briefly: Survival of mice bearing P 388 leukemia (NCI protocol 1200), T/C. Format: in vivo, Maus. The following applies: for Verlängerungsrate T/C: 9 injections; for Testergebnis in % T/C: repeat experiment. The text has this: Die nachfolgenden Versuche wurden durchgeführt nach Testvorschriften des National Cancer Institute Bethesda, Maryland 200014, veröffentlicht in Cancer Chemotherapy Reports" Part. 3, September 1972, Vol. 3, Nr. 2. Als Wirksubstanz wurde 1,3-Diglycidyl-benzimidazolon des i vorstehenden Beispiels 1 verwendet. Die Substanz wurde als wäßrige, 1%ige Injektionslösung unmittelbar vor der Applikation frisch hergestellt.
Bei Mäusen wurde gemäß Protokoll 1200 (Seite 91, c.) die Tumorart P 388 (Leukämie) i.p. mit 10^6 Zellen/Maus gesetzt. Die unbehandelten Tiere hatten eine mittlere überlebensdauer von 9,9 Tagen.
Es wird der Wirkstoff appliziert. Der Wirkstoff wird dabei in 9.Gaben in unterschiedlichen Versuchsreihen einmal zu je 200 mg/kg und in einer anderen zu 100 mg/kg und in einer dritten Versuchsreihe zu je 50 mg/kg verabreicht. In beiden Fällen wird eine signifikante Verlängerung der Lebensdauer der behandelten Testtiere gegenüber der Kontrollgruppe der nicht behandelten Tiere erzielt. […] Bei der Testgruppe mit der Dosis von 100 mg/kg beträgt die durchschnittliche Lebenserwartung der Versuchstiere 18 Tage, T/C 181 %. Die Gruppe mit der Dosis 50 mg/kg hatte eine durchschnittliche Lebenserwartung von 15,3 Tagen, T/C 154 %. […]

[1] abbreviates: Mus musculus, P388, 100 mg/kg per single dose, 9 doses, first test series, read-out: Verlängerungsrate T/C (Testergebnis in % T/C).
Where [2] appears, read: Mus musculus, P388, 200 mg/kg per single dose, 9 doses, first test series, read-out: Verlängerungsrate T/C (Testergebnis in % T/C).
Where [3] appears, read: 50 mg/kg per single dose, 9 doses, first test series.
Where [4] appears, read: 100 mg/kg per single dose, 9 doses.
Where [5] appears, read: 100 mg/kg per single dose, 9 doses, first test series.
The mark [6] stands for this setting: 200 mg/kg per single dose, 9 doses, first test series.

Where two headings read alike, the source gives them in different places.

In the case of `O=C1N(CC2CO2)CCN1CC1CO1` (stereo not drawn) [Beispiel 18 a), Diglycidylethylenharnstcff], the response vs control in vivo at 25 mg/kg (Mus musculus, P388, read-out: Testergebnis T/C (T/C-Wert), 25 mg/kg, second series, unit inferred) was found to be 119%. The response vs control in vivo at 50 mg/kg by setting is: (Mus musculus, P388, read-out: Testergebnis T/C (T/C-Wert), 50 mg/kg per single dose, first series, unit inferred) 130%; (Mus musculus, P388, read-out: Testergebnis T/C (T/C-Wert), 50 mg/kg, second series, unit inferred) 142%. Moreover, the response vs control in vivo at 100 mg/kg reads like this: (Mus musculus, P388, read-out: Testergebnis T/C (T/C-Wert), 100 mg/kg per single dose, first series, unit inferred) 155%; (Mus musculus, P388, read-out: Testergebnis T/C (T/C-Wert), 100 mg/kg, second series, unit inferred) 158%. For the same compound, the response vs control in vivo at 200 mg/kg is, setting by setting: (Mus musculus, P388, read-out: Testergebnis T/C (T/C-Wert), 200 mg/kg per single dose, first series, unit inferred) 206%; (Mus musculus, P388, read-out: Testergebnis T/C (T/C-Wert), 200 mg/kg, second series, unit inferred) 213%.

Take `O=c1c2cc3c(=O)n(CC4CO4)c(=O)c3cc2c(=O)n1CC1CO1` (stereo not drawn) [Beispiel 16, N,N^I-Diglycidylbenzoltetracarbonsäure-(1,2,4,5,)diimid]: the “Verlängerungsrate T/C” value is, setting by setting: (6,25 mg/kg per single dose) 156%; (12,5 mg/kg per single dose) 200%.

As for `O=C1N(CC2CO2)C(=O)C(c2ccccc2)(c2ccccc2)N1CC1CO1` (stereo not drawn) [R5 C6H5-R6 C6H5-, Diglycidyl-diphenylhydantoin], the “Testergebnis in % T/C” value (100 mg/kg) stood at 136% and the “Testergebnis in % T/C” value (200 mg/kg) is reported as 149%. Moreover, the response vs control in vivo at 100 mg/kg under setting [1] came to 122%. In addition, the response vs control in vivo at 200 mg/kg under setting [2] was found to be 130%.

Regarding `CN1C(=O)N(CC2CO2)C2C1N(CC1CO1)C(=O)N2C` (stereo not drawn) [Beispiel 5, 3,6 Diglycidyl-1,4-dimethylglykoluril], the “Verlängerungsrate T/C (Testergebnis in % T/C)” value runs as follows: under setting [3], 134%; under setting [5], 157%; under setting [6], 190%. Also, the “durchschnittliche Lebenserwartung der Versuchstiere” value under setting [4] is reported as 15,8 Tage.

With Diglycidyl-butylglykoluril [Beispiel 4], the “durchschnittliche Lebenserwartung der Versuchstiere” value by setting is: (50 mg/kg per single dose, 9 doses) 16,3 Tage; under setting [4], 19,3 Tage. Besides, the “Verlängerungsrate T/C (Testergebnis in % T/C)” value is 164% under setting [3], 194% under setting [5] and 272% under setting [6]. Also, for the setting “200 mg/kg per single dose, 9 doses”, the “durchschnittliche Lebensdauer der Testgruppe” value is listed as 27 Tage. Besides, for the setting “200 mg/kg per single dose, test group of 6 female mice”, the “Versuchstiere, die die Testdauer von 30 Tagen überleben” value is given as “ein Versuchstier”.

In the case of `CC1(c2ccccc2)C(=O)N(CC2CO2)C(=O)N1CC1CO1` (stereo not drawn) [R5 CH3-R6 C6H5-, Diglycidyl-5-phenyl-5-methyl-hydantoin], the response vs control in vivo at 50 mg/kg (Mus musculus, P388, 50 mg/kg per single dose, 9 doses, first test series, read-out: Verlängerungsrate T/C (Testergebnis in % T/C)) was 100%. Further, under setting [1], the response vs control in vivo at 100 mg/kg came to 160%. Further, the response vs control in vivo at 200 mg/kg under setting [2] stood at 250%.
